Reference: article PMC7536268, “Increased Antimicrobial Activity of Colistin in Combination With Gamithromycin Against Pasteurella multocida in a Neutropenic Murine Lung Infection Model” (Frontiers in Microbiology, 2020)
Where a SMILES comes first, the peptide text is derived from it. Bridges are numbered along the chain shown (N, C = ends). [ ]: non-standard residue; d: D form. The star is where a group is joined. X1 = CC[C@H](C)CCCCC(=O)*; Dab = NCC[C@H](N)C(=O)O

Experiments:
[1] = test system: Pasteurella multocida strains; assay: Checkerboard combination susceptibility testing (MIC in combination, FIC index); assay type: cell-based; details: colistin combined with gamithromycin, 37°C 24 h
Procedure: The susceptibility of the selected P. multocida isolates and the quality control isolate (ATCC 25922) to colistin, gamithromycin, cefquinome, enrofloxacin, tilmicosin, tylosin tartrate, and florfenicol alone was determined using the microdilution method in broth (conducted in triplicate) according to the guiding principles of the CLSI. Based on the action mechanism of each drug, the antimicrobial activity of colistin or cefquinome (drug A) in combination with gamithromycin, enrofloxacin, tilmicosin, tylosin tartrate, or florfenicol (drug B) was determined with the checkerboard method, according to the minimal inhibitory concentration (MIC) of each drug. Briefly, 50 μL of MH II broth was added to each well, and 50 μL of the indicated concentration of colistin or cefquinome was added into the first well of each line. This was followed by multiproportion dilution. Next, 50-μL samples of different concentrations of gamithromycin or the other drugs mentioned above were added to the dilution medium, and a 100 μL inoculum with a cell density of ∼1 × 10^6 colony-forming units (CFU)/mL was added to each well. The plates were then incubated at 37°C for 24 h. According to the EUCAST definitive document E.Def 1.2 ([Mccullough, 2010]), the fractional inhibitory concentration (FIC) index for combined administrations was defined as the sum of the FIC of drug A and the FIC of drug B, where FIC is the MIC of the drug combined with other drugs, divided by the MIC of the drug alone.

[2] = test system: Pasteurella multocida strains (D18, T5, and WJ11); assay: Mutant prevention concentration (MPC); assay type: cell-based; details: drug alone, agar, 72 h, 37°C
Procedure: The bacteria-containing broth was centrifuged at 3500 g for 15 min and resuspended in fresh MH II broth to obtain a solution containing 3 × 10^10 CFU/mL of P. multocida. The agar plates were produced by adding different concentrations of colistin and gamithromycin alone or in combination into the Mueller-Hinton agar medium supplemented with sterile defibrinated sheep blood. Aliquots of 100-μL inoculum were plated on four agar plates containing the same concentration of drug(s). Mutant prevention concentration (MPC) was defined as the lowest concentration that prevented the growth of bacteria after 72 h of incubation at 37°C.

[3] = test system: Pasteurella multocida strains (D18, T5, and WJ11); assay: In vitro postantibiotic effect (PAE); assay type: cell-based; details: 1 h exposure
Procedure: For determination of the postantibiotic effect (PAE) of colistin, gamithromycin was tested on D18, T5, and WJ11 isolates alone and in combination with colistin, and a 1 × 10^8 CFU/mL inoculum of each isolate was used after overnight incubation in MH II broth. A 0.5-mL sample of the inoculum and 0.5 mL of colistin or gamithromycin alone at 1 × or 4 × MIC, was added to 4 mL of fresh broth and incubated in a 37°C water bath for 1 h. Meanwhile, the same operation was performed for combinations of colistin at 0.25–0.5 mg/L and gamithromycin at 0.125–0.25 mg/L. Controls without drugs were included. Each inoculum was diluted 1000-fold after incubation for 1 h, and this was the starting point for PAE testing (0 h). Aliquots of 0.1 mL were withdrawn to count the bacterial burden as described above in time-kill tests at 0, 1, 2, 4, and 6 h. PAE was calculated using the equation: PAE = T – C, where T and C represent the time taken for drug-exposed (T) and control (C) cultures to increase by 1 log10 after drugs were removed ([Mackenzie and Gould, 1993]).

[4] = PK in plasma and lung tissue of neutropenic lung-infected mice; details: for AUC(0-t): Plasma AUClast; for Cmax: Plasma Cmax
Description: (§1) Five-week-old specific-pathogen-free female Institute of Cancer Research (ICR) mice weighing 20–22 g obtained from the Laboratory Animal Center of the Southern Medical University (SCXK 2016-0041, Guangzhou) were used in this experiment. Animals were maintained in the Laboratory Animal Center of the South China Agricultural University (SYXK 2014-0136, Guangzhou) in accordance with the National Standards for Laboratory Animals in China (GB 14925–2010). Neutropenia was generated by intraperitoneal injection of cyclophosphamide [TCI (Shanghai) Development Co., Ltd., Shanghai, China) 4 days before the 150-mg/kg dose and 1 day before the 100-mg/kg dose prior to lung infection ([Vogelman et al., 1988]). Three strains, namely, D18, T5, and WJ11, were incubated in MH II broth. Experimental mice were anesthetized via inhalation of isoflurane and then were hung on an adjustable-angled bracket by hooking their teeth. Endotracheal intubation was performed by importing 50 μL of a logarithmic-phase bacterial suspension (10^8–10^9 CFU/mL) into the lung through the larynges rimae using a preinserted tracheal tube ([Zhou et al., 2018]). All experimental protocols were approved by the Committee on the Ethics of Animals of South China Agricultural University.
Pharmacokinetics analysis of colistin (2.5 and 5 mg/kg), gamithromycin (1.5, 3, 6, 12, and 24 mg/kg) alone and in combination (2.5 mg/kg colistin, 3 mg/kg gamithromycin) was performed in 176 neutropenic lung-infected ICR mice following subcutaneous administration (SC). Plasma and lung tissue samples were withdrawn at the specified time point (four mice at each time point).
The concentration of colistin and gamithromycin in plasma and lung tissue was measured using a previously reported method ([Ma et al., 2008]; [Huang et al., 2010]; [Fu et al., 2018]). The limit of quantification for both colistin and gamithromycin was 0.01 mg/L in plasma and 0.2 μg/g in lung tissue. Recovery of colistin and gamithromycin in plasma and lung ranged between 88.2 and 113.1%. All inter- and intra-assay coefficients of variation were <10%. PK parameters in plasma and lung samples were estimated using a non-compartmental analysis method with WinNonlin software version 5.2.1 (Pharsight, St Louis, MO, United States).

[5] = test system: Pasteurella multocida strains (D18, T5, and WJ11); assay: In vivo pharmacodynamics, neutropenic murine pneumonia model
Description: as §1

[6] = strain D18, 1 × MIC (colistin 32 mg/L, gamithromycin 0.5 mg/L)
[7] = strain T5, 1 × MIC (colistin 32 mg/L, gamithromycin 0.5 mg/L)
[8] = strain WJ11, 1 × MIC (colistin 1 mg/L, gamithromycin 0.5 mg/L)
[9] = colistin 2.5 mg/kg SC alone, neutropenic lung-infected mice, lung tissue
[10] = colistin 5 mg/kg SC alone, neutropenic lung-infected mice, lung tissue
[11] = female, ICR, mouse, in vivo, sc, 2.5 mg/kg, colistin 2.5 mg/kg SC alone, neutropenic lung-infected mice, total plasma
[12] = female, ICR, mouse, in vivo, sc, 2.5 mg/kg, given in combination SC (2.5 mg/kg colistin, 3 mg/kg gamithromycin), total plasma
[13] = female, ICR, mouse, in vivo, sc, 5 mg/kg, colistin 5 mg/kg SC alone, neutropenic lung-infected mice, total plasma
[14] = given in combination SC (2.5 mg/kg colistin, 3 mg/kg gamithromycin), lung tissue

Structure (SMILES): CC[C@H](C)CCCCC(=O)N[C@@H](CCN)C(=O)N[C@H](C(=O)N[C@@H](CCN)C(=O)N[C@H]1CCNC(=O)[C@H]([C@@H](C)O)NC(=O)[C@H](CCN)NC(=O)[C@H](CCN)NC(=O)[C@H](CC(C)C)NC(=O)[C@@H](CC(C)C)NC(=O)[C@H](CCN)NC1=O)[C@@H](C)O [Colistin] (X1-[Dab]T[Dab][Dab][Dab][dL]L[Dab][Dab]T; lactam 4-C)
- MIC (in combination) ([1]; strain CVCC 444): 0.125 µg/mL
- MIC (in combination) ([1]; strain D18): 0.25 µg/mL
- MIC (in combination) ([1]; strain PmP2 (pig)): 0.125 µg/mL
- MIC (in combination) ([1]; strain PmP17 (pig)): 0.125 µg/mL
- MIC (in combination) ([1]; strain T5): 0.125 µg/mL
- MIC (in combination) ([1]; strain WJ11): 0.125 µg/mL
- MIC (in combination) ([1]; strain WN71): 0.0625 µg/mL
- MIC (in combination) ([1]; strain WW81): 0.5 µg/mL
- MIC (in combination) ([1]; strain XX12): 0.125 µg/mL
- MPC ([2]; strain D18): 128 mg/L
- MPC ([2]; strain T5): 128 mg/L
- MPC ([2]; strain WJ11): 64 mg/L
- PAE [3, 6]: 0.98 h
- PAE ([3]; strain D18, 4 × MIC): 3.79 h
- PAE [3, 7]: 0.29 h
- PAE ([3]; strain T5, 4 × MIC): 2.83 h
- PAE [3, 8]: 0.96 h
- PAE ([3]; strain WJ11, 4 × MIC): 2.34 h
- Lung AUClast [4, 9]: 5.22 mg⋅h/kg
- Lung Cmax [4, 9]: 3.37 mg/kg
- Lung T1/2 [4, 9]: 76.8 min
- Lung Tmax [4, 9]: 30 min
- Plasma Tmax ([4]; colistin 2.5 mg/kg SC alone, neutropenic lung-infected mice, total plasma, non-compartmental): 30 min
- Lung AUClast [4, 10]: 12.20 mg⋅h/kg
- Lung Cmax [4, 10]: 5.54 mg/kg
- Lung T1/2 [4, 10]: 103 min
- Lung Tmax [4, 10]: 45 min
- AUC(0-t) [4, 11]: 3510 ng·h/mL
- AUC(0-t) [4, 12]: 3880 ng·h/mL
- Cmax [4, 11]: 3140 ng/mL
- Cmax [4, 12]: 3330 ng/mL
- half-life ([4]; female, ICR, mouse, in vivo, sc, 2.5 mg/kg, Plasma T1/2, colistin 2.5 mg/kg SC alone, neutropenic lung-infected mice, total plasma): 40.2 min
- half-life ([4]; female, ICR, mouse, in vivo, sc, 2.5 mg/kg, Plasma T1/2, given in combination SC (2.5 mg/kg colistin, 3 mg/kg gamithromycin), total plasma): 36.6 min
- Tmax ([4]; female, ICR, mouse, in vivo, sc, 5 mg/kg): 45 min
- AUC(0-t) [4, 13]: 10500 ng·h/mL
- Cmax [4, 13]: 6330 ng/mL
- half-life ([4]; female, ICR, mouse, in vivo, sc, 5 mg/kg, Plasma T1/2, colistin 5 mg/kg SC alone, neutropenic lung-infected mice, total plasma): 49.8 min
- Lung AUClast [4, 14]: 5.10 mg⋅h/kg
- Lung Cmax [4, 14]: 2.94 mg/kg
- Lung T1/2 [4, 14]: 69.6 min
- Lung Tmax [4, 14]: 30 min
- in vivo PD outcome ([5]; colistin alone 2.5 or 5 mg/kg SC every 12 h, all three isolates, 24 h): failure to inhibit growth of bacteria

Structure (SMILES): CCCN1C[C@H](C)[C@@H](O)[C@](C)(O)[C@@H](CC)OC(=O)[C@H](C)[C@@H](O[C@H]2C[C@@](C)(OC)[C@@H](O)[C@H](C)O2)[C@H](C)[C@@H](O[C@@H]2O[C@H](C)C[C@H](N(C)C)[C@H]2O)[C@](C)(O)C[C@H]1C [Gamithromycin]
- MIC (in combination) ([1]; strain CVCC 444): 0.25 µg/mL
- MIC (in combination) ([1]; strain D18): 0.0625 µg/mL
- MIC (in combination) ([1]; strain PmP2 (pig)): 0.125 µg/mL
- MIC (in combination) ([1]; strain PmP17 (pig)): 0.0625 µg/mL
- MIC (in combination) ([1]; strain T5): 0.125 µg/mL
- MIC (in combination) ([1]; strain WJ11): 0.25 µg/mL
- MIC (in combination) ([1]; strain WN71): 0.25 µg/mL
- MIC (in combination) ([1]; strain WW81): 0.25 µg/mL
- MIC (in combination) ([1]; strain XX12): 0.0625 µg/mL
- MPC ([2]; strain D18): 1 mg/L
- MPC ([2]; strain T5): 1 mg/L
- MPC ([2]; strain WJ11): 1 mg/L
- PAE [3, 6]: 0.21 h
- PAE ([3]; strain D18, 4 × MIC): 0.51 h
- PAE [3, 7]: 0.54 h
- PAE ([3]; strain T5, 4 × MIC): 1.83 h
- PAE [3, 8]: 0.59 h
- PAE ([3]; strain WJ11, 4 × MIC): 1.16 h
- time of Cmax in lung tissue ([4]; mouse, in vivo): 0.25 to 1 h
- Lung T1/2 ([4]; mouse, in vivo, SD): 1355 ± 111 min
- Lung Tmax ([4]; mouse, in vivo, SD): 39 ± 17.4 min
- Plasma T1/2 ([4]; mouse, in vivo, SD): 731.4 ± 19.8 min
- Plasma Tmax ([4]; mouse, in vivo, SD): 27 ± 12.6 min
- dose required for effective treatment ([5]; gamithromycin monotherapy every 12 h): ≥ 24 mg/kg
